Earlier results as cited in patent US12064484B2, “Compositions for introducing RNA into cells” (ETHRIS GMBH, priority 2013, dated 2024).

Tested on: cell culture
Conditions: cholesterol-polyamine carbamates

SMILES	reporter gene expression (beta galactosidase plasmid DNA)
CC(C)CCCC(C)C1CCC2C3CC=C4CC(OC(=O)NCCNCCCNCCN)CCC4(C)C3CCC12C (centres unmarked) [ethyl/propyl/ethyl]	three- to tenfold less efficient
CC(C)CCCC(C)C1CCC2C3CC=C4CC(OC(=O)NCCCNCCCCNCCCN)CCC4(C)C3CCC12C (centres unmarked) [propyl/butyl/propyl]	by far the highest reporter gene expression
